The values below come from patent US4701440A (Hoechst Aktiengesellschaft, priority 1983, dated 1987).

For test [1] the following is noted: cited from earlier work.
Test [2] can be described thus: biological test, activity compared with unmodified insulin.

Turning to Porcine insulin-Arg^B31 OH, in test [1] (according to Chance, Excerpta Medica Int. Congress Series No. 231), the “activity relative to unmodified porcine insulin” value is on record as 62%.
Regarding insulin-Arg^B31 -Arg^B32 -OH, the “biological activity compared with unmodified insulin” value in test [2] was “approximately the same level as that of unmodified insulin”.
Still for that read-out and setting: for insulin-Arg^B31 -OH the value was “approximately the same level as that of unmodified insulin”.
“proinsulin: proinsulin, insulin precursor containing the C-peptide”: the “biological activity as fraction of that of insulin” value in test [1] (intact proinsulin vs insulin) is “about 1/8”.
